In brackets after ≈: the same amount, converted by molar mass.

In one experiment the test system is C. albicans IFM 40009. Description: Antifungal Activity Against Candida albicans (In vivo), survival of infected mice. The arrangement: species or system Candida albicans in male ICR (CRJ: CD-1) mice. The conditions noted are these: i.v. C. albicans infection, oral 1.25 mg/kg, four times in total; for Survival days: 14 days observation, Kaplan-Meier (Cox mantel test), ***: p < 0.001, control 4.1; for Survival mice on Day 14: survivors/total on day 14, control 0/10. The protocol:
Test 4: Antifungal Activity Against Candida albicans (In vivo)
After 4-week-old, male, ICR (CRJ: CD-1) mice were fasted for 6 hours, C. albicans IFM 40009 was inoculated to a tail vein of each of the mice to give an amount of 3.0×10^6 cells/mouse, whereby infection was caused. A control group consisted of 10 mice, while a medicament-administered group consisted of 5 mice. The medicament was orally administered one hour after the inoculation of the fungus and then consecutively once a day 24 hours after the inoculation, four times in total, at 1.25 mg/kg each. The survival condition during 14 days after the infection was compared. In addition, the survival days of the control group and the medicament-administered group were detected by the Kaplan-Meier method (Cox mantel test).

Another experiment deals with C. albicans ATCC 44859. Put plainly: Antifungal Activity Against Candida albicans (In vitro). It counts as cell-based. The conditions noted are these: ATCC44859, MEM + 10% fetal bovine serum, 37° C., 24 hours, CO2 incubator, read-out: Terminal point (minimum medicament concentration permitting apparent suppression of mycerial type growth). As for the experimental part:
Test 1: Antifungal Activity Against Candida albicans (In vitro)
They were incubated at 37° C. for 24 hours in a CO2 gas incubator. After incubation, a morphological change of C. albicans was observed under an inverted microscope. The minimum medicament concentration permitting the apparent suppression of mycerial type growth compared with that of a medicament-free control was determined as a terminal point (ng/ml).

For a further experiment, the system named is A. fumigatus IFM 40808. Description: Antifungal Activity Against Aspergillus fumigatus (In vitro). It counts as cell-based. The settings on record: IFM40808, RPMI 1640 with 0.165M MOPS, pH 7, 35° C., 24 hours. As for the experimental part:
Test 2: Antifungal Activity Against Aspergillus fumigatus (In vitro)
(§1) They were incubated at 35° C. for 24 hours. After incubation, the minimum medicament concentration permitting the apparent suppression of mycerial type growth compared with that of a medicament-free control was determined as an MIC value (μg/ml).

The test system of the next experiment is A. flavus IFM 41935. Description: Antifungal Activity Against Aspergillus flavus (In vitro). It counts as cell-based. The settings on record: IFM41935, RPMI 1640 with 0.165M MOPS, pH 7, 35° C., 24 hours. The protocol:
Test 3: Antifungal Activity Against Aspergillus flavus (In vitro)
as §1

In the case of `COCCS(=O)(=O)C(F)(F)C(Cn1cncn1)(OC)c1ccc(F)cc1F` (stereo not drawn) [Example 7, 1-{2-(2,4-difluorophenyl)-3,3-difluoro-2-methoxy-3-[(2-methoxyethyl)sulfonyl]propyl}-1H-1,2,4-triazole], in the experiment on C. albicans IFM 40009, the Survival days amounted to 14.0 days and the “Survival mice on Day 14” value is 5/5.

Regarding `CCOC(Cn1cncn1)(c1ccc(F)cc1F)C(F)(F)S(=O)(=O)CCO` (stereo not drawn) [Example 10, 2-{[2-(2,4-Difluorophenyl)-2-ethoxy-1,1-difluoro-3-(1H-1,2,4-triazol-1-yl)propyl]sulfonyl}-1-ethanol], in the experiment with C. albicans IFM 40009, the Survival days was 13.4 days and the “Survival mice on Day 14” value is on record as 4/5.

Consider `COCCSC(F)(F)C(Cn1cncn1)(OC)c1ccc(F)cc1F` (stereo not drawn) [Example 1, 1-{2-(2,4-difluorophenyl)-3,3-difluoro-2-methoxy-3-[(2-methoxyethyl)thio]propyl}-1H-1,2,4-triazole], for which the MIC with C. albicans ATCC 44859 was 0.0625 µg/mL; with A. fumigatus IFM 40808 it was 64 µg/mL (≈ 169 µM); in the experiment with A. flavus IFM 41935, more than 64 µg/mL.

Turning to `COC(Cn1cncn1)(c1ccc(F)cc1F)C(F)(F)S(=O)(=O)CCOC(C)=O` (stereo not drawn) [Example 12, 2-{[2-(2,4-Difluorophenyl)-1,1-difluoro-2-methoxy-3-(1H-1,2,4-triazol-1-yl)propyl]sulfonyl}ethyl acetate], in the experiment on C. albicans IFM 40009, the Survival days was 14.0 days and the “Survival mice on Day 14” value is 4/5.

`OC(Cn1cncn1)(Cn1cncn1)c1ccc(F)cc1F` [Fluconazole, reference compound]: the MIC against A. fumigatus IFM 40808 is more than 128 µg/mL. Besides, the MIC with A. flavus IFM 41935 was more than 128 µg/mL. Also, in the experiment on C. albicans IFM 40009, the Survival days was determined as 9.6 days and the “Survival mice on Day 14” value is reported as 0/5.

Turning to `COC(Cn1cncn1)(c1ccc(F)cc1F)C(F)(F)S(=O)(=O)CCO` (stereo not drawn) [Example 9, 2-{[2-(2,4-Difluorophenyl)-1,1-difluoro-2-methoxy-3-(1H-1,2,4-triazol-1-yl)propyl]sulfonyl}-1-ethanol], in the experiment with C. albicans IFM 40009, the Survival days came out at 14.0 days and the “Survival mice on Day 14” value is on record as 5/5.

The values are drawn from patent US6008239A, “Triazole derivative or salt thereof” (SSP Co., Ltd., priority 1997, dated 1999).
